Source: patent US8088758B2, “17β-hydroxysteroid dehydrogenase type I inhibitors” (Abbott Products GmbH, priority 2003, dated 2012)

Biological target: T1, recombinant human 17β-hydroxysteroid dehydrogenase type 1 (Homo sapiens, UniProt P14061)
T1 construct: made in house; host or cells: Sf9 insect cells (baculovirus, Bac to Bac Expression System)
T1 sequence (P14061 1-328): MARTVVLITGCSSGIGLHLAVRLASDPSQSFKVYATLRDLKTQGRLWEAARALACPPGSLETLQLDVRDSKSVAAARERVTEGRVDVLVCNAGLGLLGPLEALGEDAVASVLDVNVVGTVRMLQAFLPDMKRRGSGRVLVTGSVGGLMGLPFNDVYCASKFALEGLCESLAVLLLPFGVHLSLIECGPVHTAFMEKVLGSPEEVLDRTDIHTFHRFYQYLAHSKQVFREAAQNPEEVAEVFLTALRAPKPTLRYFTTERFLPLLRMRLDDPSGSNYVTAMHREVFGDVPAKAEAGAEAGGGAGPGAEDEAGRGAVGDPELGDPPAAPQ
Assay: Inhibition of recombinant human 17β-hydroxysteroid dehydrogenase type 1 (conversion of 3H-estrone to estradiol, HPLC)
Assay type: biochemical
Conditions: 30 nM 3H-estrone, 1 mM NADPH, 30 min at RT; for inhibition at 0.1 µM: inhibitor 100 nM, read-out: Inhibition of rec. 17β-HSD1 (% inhibition), 100 nM; for inhibition at 1 µM: inhibitor 1 μm, read-out: Inhibition of rec. 17β-HSD1 (% inhibition), 1 μm
Method: 1. Inhibition of the 17β-hydroxysteroid Dehydrogenase Type 1 Enzyme
17β-HSD1 Purification: Recombinant baculovirus was generated by the “Bac to Bac Expression System” (Invitrogen). Recombinant bacmid was transfected to Sf9 insect cells using “Cellfectin Reagent” (Invitrogen). 60 h later cells were harvested; the microsomal fraction was isolated as described by Puranen et al. 1994. Aliquots were stored frozen until determination of enzymatic activity.
Assay—Inhibition of Recombinant Human 17β-hydroxysteroid Dehydrogenase Type 1:
Recombinant protein (0.1 μg/ml) was incubated in 20 mM KH2PO4 pH 7.4 with 30 nM 3H-estrone and 1 mM NADPH for 30 min at RT, in the presence of potential inhibitors at concentrations of 1 μM or 0.1 μM. Inhibitor stock solutions were prepared in DMSO. Final concentration of DMSO was adjusted to 1% in all samples. The enzyme reaction was stopped by addition of 10% trichloroacetic acid (final concentration). Samples were centrifuged in a microtiter plate at 4000 rpm for 10 min. Supernatants were applied to reverse phase HPLC on a Waters Symmetry C18 column, equipped with a Waters Sentry Guard column. Isocratic HPLC runs were performed at RT at a flow rate of 1 ml/min of acetonitrile:water 48:52 as running solvent. Radioactivity was monitored in the eluate by a Packard Flow Scintillation Analyzer. Total radioactivity for estrone and estradiol were determined in each sample and percent conversion of estrone to estradiol was calculated according to the following formula:
Percent inhibition was calculated as follows: % inhibition=100−% conversion

Row | SMILES | inhibition at 0.1 µM [%] | inhibition at 1 µM [%]
1 | COc1ccc2c(c1)CC[C@H]1[C@@H]3[C@H](CCCCC(=O)NCc4cccc(F)c4)CC(=O)[C@@]3(C)CC[C@H]21 [Example 342] | 40.4 | 89.2
2 | COc1ccc2c(c1)CC[C@H]1[C@@H]3[C@H](CCCCC(=O)NCc4ccc(Cl)cc4)CC(=O)[C@@]3(C)CC[C@H]21 [Example 343] | 47.1 | 86
3 | COc1ccc2c(c1)CC[C@H]1[C@@H]3[C@H](CCCCC(=O)N(C)Cc4ccccc4)CC(=O)[C@@]3(C)CC[C@H]21 [Example 344] | 39.8 | 88.9
4 | CCCCNC(=O)CCCC[C@@H]1CC(=O)[C@@]2(C)CC[C@@H]3c4ccc(OC)cc4CC[C@H]3[C@H]12 [Example 345] | 33 | 85.6
5 | COc1ccc2c(c1)CC[C@H]1[C@@H]3[C@H](CCCCC(=O)NCCc4cccs4)CC(=O)[C@@]3(C)CC[C@H]21 [Example 346] | 58.2 | 91.7
6 | COc1ccc2c(c1)CC[C@H]1[C@@H]3[C@H](CCCCC(=O)NCCc4c[nH]c5c(C)cccc45)CC(=O)[C@@]3(C)CC[C@H]21 [Example 347] | 38 | 77.2
7 | COc1ccc2c(c1)CC[C@H]1[C@@H]3[C@H](CCCCCC(=O)NC4CCCCC4)CC(=O)[C@@]3(C)CC[C@H]21 [Example 348] | 30.5 | 82.4
8 | COc1ccc2c(c1)CC[C@H]1[C@@H]3[C@H](CCCCCC(=O)NCc4ccco4)CC(=O)[C@@]3(C)CC[C@H]21 [Example 350] | 27.7 | 80.7
9 | COc1ccc2c(c1)CC[C@H]1[C@@H]3[C@H](CCCCCC(=O)NCc4ccc5c(c4)OCO5)CC(=O)[C@@]3(C)CC[C@H]21 [Example 353] | 46.3 | 89.5
10 | COc1ccc2c(c1)CC[C@H]1[C@@H]3[C@H](CCCCCC(=O)N4CCOCC4)CC(=O)[C@@]3(C)CC[C@H]21 [Example 354] | 28.7 | 80.3
11 | COc1ccc2c(c1)CC[C@H]1[C@@H]3[C@H](CCCCCC(=O)N4CCSCC4)CC(=O)[C@@]3(C)CC[C@H]21 [Example 355] | 34.4 | 85.1
12 | COc1ccc2c(c1)CC[C@H]1[C@@H]3[C@H](CCCCCC(=O)NCc4cccnc4)CC(=O)[C@@]3(C)CC[C@H]21 [Example 356] | 26.9 | 83.9
13 | COc1ccc2c(c1)CC[C@H]1[C@@H]3[C@H](CCCCCC(=O)NCc4ccncc4)CC(=O)[C@@]3(C)CC[C@H]21 [Example 357] | 31.1 | 85.2
14 | COc1ccc2c(c1)CC[C@H]1[C@@H]3[C@H](CCCCCC(=O)NCc4ccccc4)CC(=O)[C@@]3(C)CC[C@H]21 [Example 359] | 40.5 | 88.3
15 | COc1ccc2c(c1)CC[C@H]1[C@@H]3[C@H](CCCCCC(=O)NCc4ccccc4OC)CC(=O)[C@@]3(C)CC[C@H]21 [Example 360] | 41.5 | 85.6
16 | COc1ccc2c(c1)CC[C@H]1[C@@H]3[C@H](CCCCCC(=O)NCc4cccc(F)c4)CC(=O)[C@@]3(C)CC[C@H]21 [Example 361] | 35.8 | 84.2
17 | COc1ccc2c(c1)CC[C@H]1[C@@H]3[C@H](CCCCCC(=O)NCc4ccc(Cl)cc4)CC(=O)[C@@]3(C)CC[C@H]21 [Example 362] | 35.1 | 75.1
18 | COc1ccc2c(c1)CC[C@H]1[C@@H]3[C@H](CCCCCC(=O)N(C)Cc4ccccc4)CC(=O)[C@@]3(C)CC[C@H]21 [Example 364] | 48.7 | 90.8
19 | CCCCNC(=O)CCCCC[C@@H]1CC(=O)[C@@]2(C)CC[C@@H]3c4ccc(OC)cc4CC[C@H]3[C@H]12 [Example 365] | 33.7 | 86.4

Row | SMILES | inhibition at 0.1 µM [%] | inhibition at 1 µM [%]
20 | COc1ccc2c(c1)CC[C@H]1[C@@H]3[C@H](CCCCCC(=O)NCCc4cccs4)CC(=O)[C@@]3(C)CC[C@H]21 [Example 366] | 56.3 | 94.4
21 | COc1ccc2c(c1)CC[C@H]1[C@@H]3[C@H](CCCCCC(=O)NCCc4c[nH]c5c(C)cccc45)CC(=O)[C@@]3(C)CC[C@H]21 [Example 367] | 51.5 | 73.5
22 | CCOC(=O)CNNC(=O)CCCCC[C@@H]1CC(=O)[C@@]2(C)CC[C@@H]3c4ccc(OC)cc4CC[C@H]3[C@H]12 [Example 414] | 44.9 | 49.9
23 | COc1cccc(NC(=O)NCCC[C@@H]2CC(=O)[C@@]3(C)CC[C@@H]4c5ccc(OC)cc5CC[C@H]4[C@H]23)c1 [Example 443] | 39.8 | 84.1
24 | COc1ccc(NC(=O)NCCC[C@@H]2CC(=O)[C@@]3(C)CC[C@@H]4c5ccc(OC)cc5CC[C@H]4[C@H]23)cc1 [Example 446] | 72.4 | 94.2
25 | COc1ccc2c(c1)CC[C@H]1[C@@H]3[C@H](CCCNC(=O)NC(C)C)CC(=O)[C@@]3(C)CC[C@H]21 [Example 449] | 26 | 82.7
26 | COc1ccc2c(c1)CC[C@H]1[C@@H]3[C@H](CCCNC(=O)NC4CCCCC4)CC(=O)[C@@]3(C)CC[C@H]21 [Example 450] | 34 | 80.7
27 | COc1ccc2c(c1)CC[C@H]1[C@@H]3[C@H](CCCNC(=O)Nc4cccc5ccccc45)CC(=O)[C@@]3(C)CC[C@H]21 [Example 451] | 32.3 | 74.6
28 | COc1ccc2c(c1)CC[C@H]1[C@@H]3[C@H](CCCNC(=O)NCc4ccccc4)CC(=O)[C@@]3(C)CC[C@H]21 [Example 452] | 38.6 | 82.9
29 | COc1ccc2c(c1)CC[C@H]1[C@@H]3[C@H](CCCNC(=O)Nc4ccc5ccccc5c4)CC(=O)[C@@]3(C)CC[C@H]21 [Example 460] | 50.1 | 77.2
30 | COc1ccc(NC(=O)NCCCC[C@@H]2CC(=O)[C@@]3(C)CC[C@@H]4c5ccc(OC)cc5CC[C@H]4[C@H]23)cc1 [Example 471] | 28.7 | 77
31 | COc1ccc2c(c1)CC[C@H]1[C@@H]3[C@H](CCCCNC(=O)NCc4ccccc4)CC(=O)[C@@]3(C)CC[C@H]21 [Example 477] | 31.7 | 79.5
32 | COc1ccc2c(c1)CC[C@H]1[C@@H]3[C@H](CCCCNC(=O)Nc4ccc(OC)c(OC)c4)CC(=O)[C@@]3(C)CC[C@H]21 [Example 488] | 60.3 | 91.6
33 | C[C@]12CC[C@@H]3c4ccc(O)cc4CC[C@H]3[C@@H]1[C@@H](CCCCNC(=O)NCC1CCCCC1)CC2=O [Example 491] | 56.9 | 83
34 | C[C@]12CC[C@@H]3c4ccc(O)cc4CC[C@H]3[C@@H]1[C@@H](CNS(=O)(=O)c1ccc3ccccc3c1)CC2=O [Example 661] | 40.1 | 82
35 | C[C@]12CC[C@@H]3c4ccc(O)cc4CC[C@H]3[C@@H]1[C@@H](CNS(=O)(=O)c1cccs1)CC2=O [Example 662] | 76.9 | 94.8
36 | C[C@]12CC[C@@H]3c4ccc(O)cc4CC[C@H]3[C@@H]1[C@@H](CNS(=O)(=O)c1ccccc1)CC2=O [Example 664] | 60.5 | 92.7
37 | C[C@]12CC[C@@H]3c4ccc(O)cc4CC[C@H]3[C@@H]1[C@@H](CNS(=O)(=O)c1ccc(F)cc1)CC2=O [Example 665] | 54.6 | 91.2
38 | C[C@]12CC[C@@H]3c4ccc(O)cc4CC[C@H]3[C@@H]1[C@@H](CNS(=O)(=O)c1ccc([N+](=O)[O-])cc1)CC2=O [Example 667] | 30.3 | 72.3
